The results in this text go back to ChEMBL document CHEMBL1157898 (Bioorg Med Chem Lett, 2010).

In general, residual activity refers to the activity still measured, relative to the control. Higher therefore signals a small loss of activity.

Structures are written as SMILES. Activity calls are given as the source filed them. No cut-off for these calls is given here.

Chain of Mitogen-activated protein kinase 14 (Homo sapiens) (Q16539 whole entry): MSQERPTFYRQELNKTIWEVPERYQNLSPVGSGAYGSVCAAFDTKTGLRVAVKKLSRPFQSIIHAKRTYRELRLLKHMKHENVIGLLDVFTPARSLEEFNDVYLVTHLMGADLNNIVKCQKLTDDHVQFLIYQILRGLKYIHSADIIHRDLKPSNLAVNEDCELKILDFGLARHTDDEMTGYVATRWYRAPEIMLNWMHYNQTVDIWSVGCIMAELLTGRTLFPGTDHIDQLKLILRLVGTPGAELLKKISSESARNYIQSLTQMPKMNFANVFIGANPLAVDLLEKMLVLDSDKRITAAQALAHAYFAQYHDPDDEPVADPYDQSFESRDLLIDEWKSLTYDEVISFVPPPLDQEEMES
Chain of Rho-associated protein kinase 2 (Homo sapiens) (O75116 whole entry, looked up): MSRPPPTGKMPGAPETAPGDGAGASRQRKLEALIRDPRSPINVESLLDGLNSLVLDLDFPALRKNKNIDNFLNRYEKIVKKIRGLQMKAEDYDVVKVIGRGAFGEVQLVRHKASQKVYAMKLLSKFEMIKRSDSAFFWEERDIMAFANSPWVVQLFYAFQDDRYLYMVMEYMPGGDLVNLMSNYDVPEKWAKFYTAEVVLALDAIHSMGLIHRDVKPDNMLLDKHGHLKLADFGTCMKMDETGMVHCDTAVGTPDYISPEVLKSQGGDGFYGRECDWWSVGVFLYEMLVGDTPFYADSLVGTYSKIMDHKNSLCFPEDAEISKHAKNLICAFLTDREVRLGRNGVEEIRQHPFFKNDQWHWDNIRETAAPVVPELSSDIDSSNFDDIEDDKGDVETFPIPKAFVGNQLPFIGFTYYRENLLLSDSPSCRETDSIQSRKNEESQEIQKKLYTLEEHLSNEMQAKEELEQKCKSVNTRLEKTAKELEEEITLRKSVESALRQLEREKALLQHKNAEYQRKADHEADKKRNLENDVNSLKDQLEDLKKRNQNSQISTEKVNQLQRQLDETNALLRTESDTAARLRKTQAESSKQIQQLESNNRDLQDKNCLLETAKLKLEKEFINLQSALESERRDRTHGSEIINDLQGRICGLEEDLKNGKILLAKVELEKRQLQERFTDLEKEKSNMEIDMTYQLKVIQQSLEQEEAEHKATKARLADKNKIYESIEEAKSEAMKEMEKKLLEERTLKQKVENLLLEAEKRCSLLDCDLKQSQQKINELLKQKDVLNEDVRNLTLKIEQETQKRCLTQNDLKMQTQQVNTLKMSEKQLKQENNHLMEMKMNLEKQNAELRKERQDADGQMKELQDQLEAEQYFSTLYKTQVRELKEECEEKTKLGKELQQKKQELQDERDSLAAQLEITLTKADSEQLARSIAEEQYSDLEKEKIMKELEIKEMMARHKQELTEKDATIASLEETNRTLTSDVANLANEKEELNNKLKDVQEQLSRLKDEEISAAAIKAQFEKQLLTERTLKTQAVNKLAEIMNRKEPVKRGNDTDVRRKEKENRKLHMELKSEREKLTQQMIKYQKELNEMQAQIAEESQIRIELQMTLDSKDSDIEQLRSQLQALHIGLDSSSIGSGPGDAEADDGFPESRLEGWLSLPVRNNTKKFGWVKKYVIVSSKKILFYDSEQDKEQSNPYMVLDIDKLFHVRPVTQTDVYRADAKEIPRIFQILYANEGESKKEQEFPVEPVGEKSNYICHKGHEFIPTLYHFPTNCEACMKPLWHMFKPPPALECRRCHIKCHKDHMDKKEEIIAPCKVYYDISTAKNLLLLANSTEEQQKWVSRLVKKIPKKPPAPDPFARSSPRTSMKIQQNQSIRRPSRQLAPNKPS
Chain of Ribosomal protein S6 kinase alpha-1 (Homo sapiens) (Q15418 whole entry): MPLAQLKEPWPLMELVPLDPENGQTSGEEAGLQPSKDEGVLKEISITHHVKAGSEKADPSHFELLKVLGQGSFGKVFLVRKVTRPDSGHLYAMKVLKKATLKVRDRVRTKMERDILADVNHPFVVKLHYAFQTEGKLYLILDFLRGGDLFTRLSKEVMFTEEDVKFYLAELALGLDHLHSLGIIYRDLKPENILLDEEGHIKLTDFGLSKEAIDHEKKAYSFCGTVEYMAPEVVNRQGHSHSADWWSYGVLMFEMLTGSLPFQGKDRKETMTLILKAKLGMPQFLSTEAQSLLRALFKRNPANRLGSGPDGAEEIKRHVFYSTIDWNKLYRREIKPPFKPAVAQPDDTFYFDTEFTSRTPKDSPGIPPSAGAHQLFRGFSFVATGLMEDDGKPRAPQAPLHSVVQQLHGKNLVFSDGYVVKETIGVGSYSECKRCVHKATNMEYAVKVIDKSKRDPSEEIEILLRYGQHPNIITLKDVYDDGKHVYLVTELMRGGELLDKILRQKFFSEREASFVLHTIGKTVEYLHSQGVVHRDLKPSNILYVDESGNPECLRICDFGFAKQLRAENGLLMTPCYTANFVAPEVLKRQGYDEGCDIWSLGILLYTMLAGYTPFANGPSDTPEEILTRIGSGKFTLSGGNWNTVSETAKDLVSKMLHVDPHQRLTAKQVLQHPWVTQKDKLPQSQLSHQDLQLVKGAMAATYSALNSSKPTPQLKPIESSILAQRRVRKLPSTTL
Chain of Serine/threonine-protein kinase PAK 2 (Homo sapiens) (Q13177 whole entry): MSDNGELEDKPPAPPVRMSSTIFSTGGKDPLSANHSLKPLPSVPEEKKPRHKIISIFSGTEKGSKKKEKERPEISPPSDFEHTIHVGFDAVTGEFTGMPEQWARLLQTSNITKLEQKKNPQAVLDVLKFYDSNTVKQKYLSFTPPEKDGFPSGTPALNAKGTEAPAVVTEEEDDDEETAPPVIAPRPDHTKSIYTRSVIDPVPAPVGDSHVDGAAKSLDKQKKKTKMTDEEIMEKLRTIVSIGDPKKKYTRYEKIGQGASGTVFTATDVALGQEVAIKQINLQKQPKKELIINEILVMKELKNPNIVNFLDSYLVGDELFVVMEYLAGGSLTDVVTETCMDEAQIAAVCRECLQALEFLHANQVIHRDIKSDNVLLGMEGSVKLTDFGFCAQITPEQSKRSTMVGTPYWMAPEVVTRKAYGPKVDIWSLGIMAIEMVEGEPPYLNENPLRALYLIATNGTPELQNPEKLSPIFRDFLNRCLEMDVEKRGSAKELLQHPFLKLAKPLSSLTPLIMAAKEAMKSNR

One assay addresses T1, Gamma-secretase (Homo sapiens) (UniProt Q96BI3+Q9NZ42+Q8WW43+P49768+Q92542+P49810). Put plainly: Inhibition of gamma secretase mediated amyloid beta 38 generation in human H4 cells at 10 uM by LPECL assay; values are per cent of control.
As for `O=C1Nc2ccc(Cl)cc2/C1=C\c1ccccc1[N+](=O)[O-]`, the residual activity was 94%.

The molecule `COc1cc(OC)c(C=C2C(=O)Nc3ccccc32)c(OC)c1` showed a residual activity of 55%.

The molecule `CCN(CC)CCNC(=O)c1c(C)[nH]c(/C=C2\C(=O)Nc3ccc(F)cc32)c1C` [SUNITINIB] yielded a residual activity of 26%.

The target of another assay is T2, Serine/threonine-protein kinase Sgk1 (Homo sapiens) (UniProt O00141).
T2 sequence (whole entry): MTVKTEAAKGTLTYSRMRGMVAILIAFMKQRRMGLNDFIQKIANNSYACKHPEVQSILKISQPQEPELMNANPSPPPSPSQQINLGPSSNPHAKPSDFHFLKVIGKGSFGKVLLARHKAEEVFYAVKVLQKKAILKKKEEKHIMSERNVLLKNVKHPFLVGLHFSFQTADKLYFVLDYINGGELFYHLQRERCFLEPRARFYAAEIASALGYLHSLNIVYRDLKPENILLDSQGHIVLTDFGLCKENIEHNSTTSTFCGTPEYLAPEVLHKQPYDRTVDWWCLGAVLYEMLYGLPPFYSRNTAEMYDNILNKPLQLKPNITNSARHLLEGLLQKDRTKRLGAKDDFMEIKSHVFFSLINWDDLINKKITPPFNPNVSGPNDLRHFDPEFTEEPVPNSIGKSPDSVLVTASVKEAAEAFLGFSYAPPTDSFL
Put plainly: Inhibition of SGK1.
Turning to `O=C1Nc2ccc(Cl)cc2/C1=C\c1cc(F)cc(F)c1`, the inhibition result is “inactive”.

For the molecule `O=C1Nc2ccc(Cl)cc2/C1=C\c1ccccc1[N+](=O)[O-]`, the inhibition result was “inactive”.

With `COc1cc(OC)c(C=C2C(=O)Nc3ccccc32)c(OC)c1`, the inhibition result is “inactive”.

In the case of `CCN(CC)CCNC(=O)c1c(C)[nH]c(/C=C2\C(=O)Nc3ccc(F)cc32)c1C` [SUNITINIB], the inhibition result was “inactive”.

System in the next assay: not listed separately
Put plainly: Inhibition of PKA.
Turning to `O=C1Nc2ccc(Cl)cc2/C1=C\c1cc(F)cc(F)c1`, the inhibition result is “inactive”.

For the molecule `O=C1Nc2ccc(Cl)cc2/C1=C\c1ccccc1[N+](=O)[O-]`, the inhibition entry was “inactive”.

For the molecule `COc1cc(OC)c(C=C2C(=O)Nc3ccccc32)c(OC)c1`, the inhibition entry was “inactive”.

Consider `CCN(CC)CCNC(=O)c1c(C)[nH]c(/C=C2\C(=O)Nc3ccc(F)cc32)c1C` [SUNITINIB], for which the inhibition entry was “inactive”.

Another assay has as its target Serine/threonine-protein kinase PAK 2 (Homo sapiens) (UniProt Q13177). The assay can be described thus: Inhibition of PAK2.
For the molecule `O=C1Nc2ccc(Cl)cc2/C1=C\c1cc(F)cc(F)c1`, the inhibition result was “inactive”.

As to `O=C1Nc2ccc(Cl)cc2/C1=C\c1ccccc1[N+](=O)[O-]`, the inhibition result was “inactive”.

As for `COc1cc(OC)c(C=C2C(=O)Nc3ccccc32)c(OC)c1`, the inhibition result is “inactive”.

Consider `CCN(CC)CCNC(=O)c1c(C)[nH]c(/C=C2\C(=O)Nc3ccc(F)cc32)c1C` [SUNITINIB], for which the inhibition entry is “inactive”.

The next assay addresses T1, Gamma-secretase (Homo sapiens). Put plainly: Inhibition of gamma secretase mediated amyloid beta 40 generation in human H4 cells at 10 uM by LPECL assay; values are per cent of control.
As for `O=C1Nc2ccc(Cl)cc2/C1=C\c1ccccc1[N+](=O)[O-]`, the residual activity was 88%.

As to `COc1cc(OC)c(C=C2C(=O)Nc3ccccc32)c(OC)c1`, the residual activity stood at 77%.

As for `CCN(CC)CCNC(=O)c1c(C)[nH]c(/C=C2\C(=O)Nc3ccc(F)cc32)c1C` [SUNITINIB], the residual activity was 53%.

In the next assay the target is Receptor-type tyrosine-protein kinase FLT3 (Homo sapiens) (UniProt P36888). The assay can be described thus: Inhibition of FLT3.
Chain of Receptor-type tyrosine-protein kinase FLT3 (Homo sapiens) (P36888 whole entry): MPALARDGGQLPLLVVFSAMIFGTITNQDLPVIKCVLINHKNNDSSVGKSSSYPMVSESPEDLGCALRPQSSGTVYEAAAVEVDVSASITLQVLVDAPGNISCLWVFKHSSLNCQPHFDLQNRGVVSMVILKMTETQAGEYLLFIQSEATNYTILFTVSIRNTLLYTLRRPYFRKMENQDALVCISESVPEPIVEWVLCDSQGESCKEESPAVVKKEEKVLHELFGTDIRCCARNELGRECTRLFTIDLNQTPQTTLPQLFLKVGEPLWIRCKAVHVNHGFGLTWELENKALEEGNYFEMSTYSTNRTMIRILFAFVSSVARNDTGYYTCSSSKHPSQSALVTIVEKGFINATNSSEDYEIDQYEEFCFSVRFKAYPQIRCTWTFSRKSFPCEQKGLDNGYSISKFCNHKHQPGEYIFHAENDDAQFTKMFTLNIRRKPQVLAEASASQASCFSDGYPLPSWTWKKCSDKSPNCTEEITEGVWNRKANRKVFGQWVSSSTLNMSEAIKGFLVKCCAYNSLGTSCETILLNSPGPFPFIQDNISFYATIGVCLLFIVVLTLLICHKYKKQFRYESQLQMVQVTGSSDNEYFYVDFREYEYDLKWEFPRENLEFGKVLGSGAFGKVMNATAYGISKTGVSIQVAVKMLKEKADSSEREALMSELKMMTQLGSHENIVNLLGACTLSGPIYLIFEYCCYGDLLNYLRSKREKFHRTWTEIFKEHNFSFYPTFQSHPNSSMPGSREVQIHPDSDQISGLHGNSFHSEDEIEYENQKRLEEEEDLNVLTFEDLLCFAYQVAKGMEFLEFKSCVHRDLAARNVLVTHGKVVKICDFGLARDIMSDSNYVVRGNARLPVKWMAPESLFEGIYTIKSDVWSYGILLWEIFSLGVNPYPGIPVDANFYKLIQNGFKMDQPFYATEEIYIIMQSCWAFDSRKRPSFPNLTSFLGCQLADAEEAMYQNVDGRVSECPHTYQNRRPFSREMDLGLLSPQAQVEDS
Take `O=C1Nc2ccc(Cl)cc2/C1=C\c1cc(F)cc(F)c1`: the inhibition entry is “inactive”.

`O=C1Nc2ccc(Cl)cc2/C1=C\c1ccccc1[N+](=O)[O-]`: the inhibition result is “inactive”.

As to `COc1cc(OC)c(C=C2C(=O)Nc3ccccc32)c(OC)c1`, the inhibition result was “inactive”.

For `CCN(CC)CCNC(=O)c1c(C)[nH]c(/C=C2\C(=O)Nc3ccc(F)cc32)c1C` [SUNITINIB], the inhibition entry is “inactive”.

A further assay addresses T3, Serine/threonine-protein kinase 3 (Homo sapiens) (UniProt Q13188).
T3 sequence (whole entry): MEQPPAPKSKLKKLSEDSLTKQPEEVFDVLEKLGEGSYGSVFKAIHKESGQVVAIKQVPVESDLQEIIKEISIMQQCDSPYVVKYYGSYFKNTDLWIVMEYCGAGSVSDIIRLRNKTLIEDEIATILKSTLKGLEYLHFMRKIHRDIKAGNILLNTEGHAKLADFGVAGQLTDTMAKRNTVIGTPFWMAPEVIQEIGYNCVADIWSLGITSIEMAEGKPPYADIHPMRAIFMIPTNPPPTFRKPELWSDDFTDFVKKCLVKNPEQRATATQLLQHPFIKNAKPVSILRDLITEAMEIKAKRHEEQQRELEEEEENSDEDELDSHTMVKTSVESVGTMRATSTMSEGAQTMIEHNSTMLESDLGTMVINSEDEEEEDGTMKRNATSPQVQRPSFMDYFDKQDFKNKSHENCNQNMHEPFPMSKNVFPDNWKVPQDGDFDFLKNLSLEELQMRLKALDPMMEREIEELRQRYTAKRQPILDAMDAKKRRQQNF
Put plainly: Inhibition of MST2.
As to `O=C1Nc2ccc(Cl)cc2/C1=C\c1cc(F)cc(F)c1`, the inhibition entry is “inactive”.

For `O=C1Nc2ccc(Cl)cc2/C1=C\c1ccccc1[N+](=O)[O-]`, the inhibition entry is “inactive”.

In the case of `COc1cc(OC)c(C=C2C(=O)Nc3ccccc32)c(OC)c1`, the inhibition result was “inactive”.

Turning to `CCN(CC)CCNC(=O)c1c(C)[nH]c(/C=C2\C(=O)Nc3ccc(F)cc32)c1C` [SUNITINIB], the inhibition result was “inactive”.

In the next assay the target is T4, MAP kinase-activated protein kinase 5 (Homo sapiens) (UniProt Q8IW41).
T4 sequence (whole entry): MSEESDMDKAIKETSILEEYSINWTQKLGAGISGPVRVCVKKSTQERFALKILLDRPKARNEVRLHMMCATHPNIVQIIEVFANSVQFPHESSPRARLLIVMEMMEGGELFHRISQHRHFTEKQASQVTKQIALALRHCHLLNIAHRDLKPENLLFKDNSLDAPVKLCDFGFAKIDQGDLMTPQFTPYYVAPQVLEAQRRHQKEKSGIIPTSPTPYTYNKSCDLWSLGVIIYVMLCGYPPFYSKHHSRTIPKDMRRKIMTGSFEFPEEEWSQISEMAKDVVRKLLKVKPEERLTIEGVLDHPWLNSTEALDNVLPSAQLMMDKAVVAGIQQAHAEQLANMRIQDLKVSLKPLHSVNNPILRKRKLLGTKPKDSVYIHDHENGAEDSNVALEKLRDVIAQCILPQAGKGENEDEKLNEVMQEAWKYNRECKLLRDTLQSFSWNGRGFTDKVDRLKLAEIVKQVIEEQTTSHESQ
The assay can be described thus: Inhibition of PRAK.
With `O=C1Nc2ccc(Cl)cc2/C1=C\c1cc(F)cc(F)c1`, the inhibition entry is “inactive”.

Consider `O=C1Nc2ccc(Cl)cc2/C1=C\c1ccccc1[N+](=O)[O-]`, for which the inhibition entry is “inactive”.

Take `COc1cc(OC)c(C=C2C(=O)Nc3ccccc32)c(OC)c1`: the inhibition entry was “inactive”.

Regarding `CCN(CC)CCNC(=O)c1c(C)[nH]c(/C=C2\C(=O)Nc3ccc(F)cc32)c1C` [SUNITINIB], the inhibition result was “inactive”.

The next assay has as its target Mitogen-activated protein kinase 14 (Homo sapiens) (UniProt Q16539). Put plainly: Inhibition of P38alpha.
As for `O=C1Nc2ccc(Cl)cc2/C1=C\c1cc(F)cc(F)c1`, the inhibition result was “inactive”.

In the case of `O=C1Nc2ccc(Cl)cc2/C1=C\c1ccccc1[N+](=O)[O-]`, the inhibition result was “inactive”.

Take `COc1cc(OC)c(C=C2C(=O)Nc3ccccc32)c(OC)c1`: the inhibition result is “inactive”.

For the molecule `CCN(CC)CCNC(=O)c1c(C)[nH]c(/C=C2\C(=O)Nc3ccc(F)cc32)c1C` [SUNITINIB], the inhibition result was “inactive”.

The next assay deals with Tyrosine-protein kinase Fyn (Homo sapiens) (UniProt P06241). Put plainly: Inhibition of FYN.
Chain of Tyrosine-protein kinase Fyn (Homo sapiens) (P06241 2-537 limits assumed): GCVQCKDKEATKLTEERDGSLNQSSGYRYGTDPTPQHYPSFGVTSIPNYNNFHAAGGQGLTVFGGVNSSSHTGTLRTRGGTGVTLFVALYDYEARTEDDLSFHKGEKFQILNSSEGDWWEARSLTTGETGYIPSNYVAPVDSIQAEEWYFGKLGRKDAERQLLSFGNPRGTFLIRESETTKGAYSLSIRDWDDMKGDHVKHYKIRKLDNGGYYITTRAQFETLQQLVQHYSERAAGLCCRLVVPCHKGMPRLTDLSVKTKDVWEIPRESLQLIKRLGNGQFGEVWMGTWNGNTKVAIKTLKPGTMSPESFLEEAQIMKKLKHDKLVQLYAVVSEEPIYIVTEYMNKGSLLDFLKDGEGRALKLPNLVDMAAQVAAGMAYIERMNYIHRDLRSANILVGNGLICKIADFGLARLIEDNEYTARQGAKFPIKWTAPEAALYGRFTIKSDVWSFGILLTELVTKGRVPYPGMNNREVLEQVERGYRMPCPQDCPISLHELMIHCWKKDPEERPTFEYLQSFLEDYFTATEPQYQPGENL
For `O=C1Nc2ccc(Cl)cc2/C1=C\c1cc(F)cc(F)c1`, the inhibition entry was “inactive”.

As for `O=C1Nc2ccc(Cl)cc2/C1=C\c1ccccc1[N+](=O)[O-]`, the inhibition entry was “inactive”.

`COc1cc(OC)c(C=C2C(=O)Nc3ccccc32)c(OC)c1`: the inhibition result was “inactive”.

For the molecule `CCN(CC)CCNC(=O)c1c(C)[nH]c(/C=C2\C(=O)Nc3ccc(F)cc32)c1C` [SUNITINIB], the inhibition entry is “inactive”.

A further assay has as its target Rho-associated protein kinase 2 (Homo sapiens) (UniProt O75116). The assay can be described thus: Inhibition of ROCK2.
As to `O=C1Nc2ccc(Cl)cc2/C1=C\c1cc(F)cc(F)c1`, the inhibition result is “inactive”.

With `O=C1Nc2ccc(Cl)cc2/C1=C\c1ccccc1[N+](=O)[O-]`, the inhibition entry was “inactive”.

As to `COc1cc(OC)c(C=C2C(=O)Nc3ccccc32)c(OC)c1`, the inhibition entry was “inactive”.

On to `CCN(CC)CCNC(=O)c1c(C)[nH]c(/C=C2\C(=O)Nc3ccc(F)cc32)c1C` [SUNITINIB], for which the inhibition result is “inactive”.

A further assay deals with Mitogen-activated protein kinase kinase kinase kinase 4 (Homo sapiens) (UniProt O95819). Put plainly: Inhibition of HGK.
Regarding `O=C1Nc2ccc(Cl)cc2/C1=C\c1cc(F)cc(F)c1`, the inhibition entry is “inactive”.

`O=C1Nc2ccc(Cl)cc2/C1=C\c1ccccc1[N+](=O)[O-]`: the inhibition result is “inactive”.

On to `COc1cc(OC)c(C=C2C(=O)Nc3ccccc32)c(OC)c1`, for which the inhibition entry is “inactive”.

For the molecule `CCN(CC)CCNC(=O)c1c(C)[nH]c(/C=C2\C(=O)Nc3ccc(F)cc32)c1C` [SUNITINIB], the inhibition result is “inactive”.

A further assay deals with MAP kinase-activated protein kinase 2 (Homo sapiens) (UniProt P49137). Put plainly: Inhibition of MAPKAPK2.
Chain of MAP kinase-activated protein kinase 2 (Homo sapiens) (P49137 whole entry, looked up): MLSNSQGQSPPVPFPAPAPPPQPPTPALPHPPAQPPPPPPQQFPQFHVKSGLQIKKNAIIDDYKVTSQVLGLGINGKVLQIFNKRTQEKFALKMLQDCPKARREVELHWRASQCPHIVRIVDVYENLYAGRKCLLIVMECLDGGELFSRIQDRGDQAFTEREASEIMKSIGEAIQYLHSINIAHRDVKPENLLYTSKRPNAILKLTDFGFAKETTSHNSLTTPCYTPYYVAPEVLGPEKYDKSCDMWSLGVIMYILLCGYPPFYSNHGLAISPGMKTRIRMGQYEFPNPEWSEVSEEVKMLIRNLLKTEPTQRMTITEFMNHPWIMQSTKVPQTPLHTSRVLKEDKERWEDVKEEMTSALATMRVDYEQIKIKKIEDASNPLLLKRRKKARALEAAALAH
In the case of `O=C1Nc2ccc(Cl)cc2/C1=C\c1cc(F)cc(F)c1`, the inhibition entry was “inactive”.

Turning to `O=C1Nc2ccc(Cl)cc2/C1=C\c1ccccc1[N+](=O)[O-]`, the inhibition entry was “inactive”.

Take `COc1cc(OC)c(C=C2C(=O)Nc3ccccc32)c(OC)c1`: the inhibition result is “inactive”.

`CCN(CC)CCNC(=O)c1c(C)[nH]c(/C=C2\C(=O)Nc3ccc(F)cc32)c1C` [SUNITINIB]: the inhibition result was “inactive”.

A further assay deals with Ribosomal protein S6 kinase alpha-5 (Homo sapiens) (UniProt O75582). Put plainly: Inhibition of MSK1.
Regarding `O=C1Nc2ccc(Cl)cc2/C1=C\c1cc(F)cc(F)c1`, the inhibition result was “inactive”.

Take `O=C1Nc2ccc(Cl)cc2/C1=C\c1ccccc1[N+](=O)[O-]`: the inhibition entry was “inactive”.

In the case of `COc1cc(OC)c(C=C2C(=O)Nc3ccccc32)c(OC)c1`, the inhibition result is “inactive”.

Turning to `CCN(CC)CCNC(=O)c1c(C)[nH]c(/C=C2\C(=O)Nc3ccc(F)cc32)c1C` [SUNITINIB], the inhibition result was “inactive”.

A further assay addresses Ribosomal protein S6 kinase alpha-1 (Homo sapiens) (UniProt Q15418). Put plainly: Inhibition of RSK1.
As for `O=C1Nc2ccc(Cl)cc2/C1=C\c1cc(F)cc(F)c1`, the inhibition result is “inactive”.

As for `O=C1Nc2ccc(Cl)cc2/C1=C\c1ccccc1[N+](=O)[O-]`, the inhibition result was “inactive”.

As for `COc1cc(OC)c(C=C2C(=O)Nc3ccccc32)c(OC)c1`, the inhibition entry is “inactive”.

As to `CCN(CC)CCNC(=O)c1c(C)[nH]c(/C=C2\C(=O)Nc3ccc(F)cc32)c1C` [SUNITINIB], the inhibition result is “inactive”.

A further assay deals with Serine/threonine-protein kinase pim-2 (Homo sapiens) (UniProt Q9P1W9). The assay can be described thus: Inhibition of PIM2.
`O=C1Nc2ccc(Cl)cc2/C1=C\c1cc(F)cc(F)c1`: the inhibition result was “inactive”.

Turning to `O=C1Nc2ccc(Cl)cc2/C1=C\c1ccccc1[N+](=O)[O-]`, the inhibition entry was “inactive”.

With `COc1cc(OC)c(C=C2C(=O)Nc3ccccc32)c(OC)c1`, the inhibition entry was “inactive”.

For the molecule `CCN(CC)CCNC(=O)c1c(C)[nH]c(/C=C2\C(=O)Nc3ccc(F)cc32)c1C` [SUNITINIB], the inhibition result was “inactive”.
